Several values for one entry are separate records, joined by “and”; a condition that tells them apart may be missing. Equal entries are not always repeated. Where two headings read alike, the source gives them in different places.

Data on 7 compounds can be found in publication PMC4512758 (Analytical biochemistry, 2015).

The target of assay [1] is DIPY binding site of TSPO (Homo sapiens, UniProt P30536). As to the kind of experiment: Frontal displacement on MMAC-.
For assay [2], the target named is TSPO. The note with it: read-out: Reported Ki using marker ligand PK; cited from earlier work.
Assay [3] concerns the target mitochondrial permeability transition pore (mPTP). Nature of the assay: Frontal affinity chromatography on MMAC-. In kind it is binding, human. The note with it: read-out: Kd on MMAC-(U87MG); mPTP ligand; ammonium acetate [10 mM, pH 7.4].
The target in another assay is mPTP. The note with it: cited from earlier work.
For assay [4], the target named is Translocator protein (TSPO) (Homo sapiens, UniProt P30536). Nature of the assay: Frontal affinity chromatography. It is filed as binding. The note with it: for Breakthrough time: MMAC (U87MG), ammonium acetate [10 mM.
Translocator protein (TSPO), sequence (P30536 whole entry): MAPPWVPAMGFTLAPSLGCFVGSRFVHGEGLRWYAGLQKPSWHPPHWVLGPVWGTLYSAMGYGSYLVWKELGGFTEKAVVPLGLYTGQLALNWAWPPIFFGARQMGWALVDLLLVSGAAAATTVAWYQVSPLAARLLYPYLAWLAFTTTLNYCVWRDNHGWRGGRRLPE
In assay [5] the target is T1, TSPO (Homo sapiens, UniProt P30536). As to the kind of experiment: Frontal affinity chromatography on MMAC-OT. In kind it is binding.
T1 sequence (P30536 whole entry): as above
In assay [6] the target is sulfonylurea receptor (SUR). As to the kind of experiment: Frontal affinity chromatography on MMAC-. In kind it is binding, human. The note with it: read-out: Kd on MMAC-(U87MG); SUR ligand; ammonium acetate [10 mM, pH 7.4].
The target in assay [7] is SUR. Nature of the assay: Frontal affinity chromatography on MMAC-OT. In kind it is binding, human. Conditions: read-out: Kd on MMAC-OT (HEK-293); SUR ligand; open tubular column.
The target of assay [8] is SUR. Conditions: read-out: Reported Kd; SUR ligand; cited from earlier work.
For assay [9], the target named is T1, TSPO. As to the kind of experiment: Single displacement study for ranking TSPO ligands on MMAC-. It is filed as binding. Conditions: MMAC-(U87MG).

DIPY binding site of TSPO, sequence (P30536 whole entry): as above

As to `C=CC1=C(C)c2cc3[nH]c(cc4nc(cc5[nH]c(cc1n2)c(C)c5CCC(=O)O)C(CCC(=O)O)=C4C)c(C)c3C=C` [PIX, protoporphyrin IX], the Ki in [1] was 3330 ± 1350 nM; on TSPO [2], 2920 nM.

Regarding `CCC1=C(C)c2cc3[nH]c(cc4[nH]c(cc5nc(cc1n2)C(C)=C5CC)c(C)c4CCC(=O)O)c(CCC(=O)O)c3C` [MIX, mesoporphyrin IX], the Ki in assay [1] (read-out: Ki for DIPY binding site on MMAC(U87MG), 0.5 μM DIPY as marker, ammonium acetate [10 mM, pH 5.9]) is 1470 ± 120 nM; on TSPO [2] it was 650 nM.

As to `O=C(O)Cc1ccccc1Nc1c(Cl)cccc1Cl` [Diclofenac, diclofenac], the Kd in [3] stood at 1200 ± 190 nM. Besides, the “Reported Kd (mPTP induction)” value on mPTP is “induces mPTP at low micromolar range [1, 37]”.

For `C=C(C)[C@H]1Cc2c(ccc3c2O[C@@H]2COc4cc(OC)c(OC)cc4[C@@H]2C3=O)O1` [Rot, rotenone], the inhibition constant Ki in assay [1] is 3400 ± 1270 nM; at TSPO [2] it was 20900 nM.

As for `OCCN(CCO)c1nc(N2CCCCC2)c2nc(N(CCO)CCO)nc(N3CCCCC3)c2n1` [DIPY, dipyridamole], the Breakthrough time in assay [4] (pH 5.9]) is 100 min; in assay [4] (pH 5.9] with 10% methanol) it was 50 min; in [4] (pH 7.4]), 200 min. This compound also came in with a Kd on TSPO [5] of 760 ± 250 nM. Also, the Ki at TSPO [2] was 680 nM and 679 nM.

In the case of `COc1ccc(Cl)cc1C(=O)NCCc1ccc(S(=O)(=O)NC(=O)NC2CCCCC2)cc1` [Glibenclamide, glibenclamide], the Kd is 790 ± 390 nM in assay [6], 990 ± 520 nM at SUR [7] and 360 ± 50 nM at SUR [8].

As for `CN1C(=O)CN=C(c2ccccc2F)c2cc([N+](=O)[O-])ccc21` [Flu, flunitrazepam], the Kd in assay [4] stood at 290 ± 60 nM. Besides, the “Increase of breakthrough time of DIPY” value in [1] (MMAC-(U87MG), concentrations greater than 0.5 μM) is 10-15%. In addition, the “Displacement of DIPY” value in assay [1] (MMAC-(U87MG), concentrations lower than 0.5 μM) is reported as “did not significantly displace DIPY”. The “Effect on retention of DIPY in single displacement study” value at TSPO [9] (2.875 μM compound with 0.125 μM DIPY) is “increased the retention of DIPY”. Also, the “Increase of retention of 0.125 μM DIPY” value on TSPO [9] (2.875 μM compound, pH 5.9) was ~ 15%. Besides, the inhibitory constant (Ki) on TSPO [2] was 211 nM.

Usually Ki stands for a dissociation constant, usually derived from enzyme kinetics or from competition with a known ligand. What is called Kd is a measure of binding affinity in units of concentration.
